From BindingDB's records for doi:10.1021/acs.jmedchem.0c00689 (Virginia Commonwealth University, 2020)
pIC50: −log10 of the molar value. Where a SMILES comes first, the peptide text is derived from it. The star is where a group is joined. X1 = O=C(Cc1ccc(O)cc1)*

Legend:
[1] = Inhibition of recombinant human full-length His6-tagged NTMT1 (1 to 222 residues) expressed in Escherichia coli BL21-CodonPlus(DE3)-RIL competent cells assessed as Me3RCC1 level at 2 uM pre-incubated for 10 mins before RCC1 substrate addition and measured after 15 mins by Western blot analysis relative to control
[2] = Inhibition of recombinant human full-length His6-tagged NTMT1 (1 to 222 residues) expressed in Escherichia coli BL21-CodonPlus(DE3)-RIL competent cells assessed as Me2RCC1 level at 2 uM pre-incubated for 10 mins before RCC1 substrate addition and measured after 15 mins by Western blot analysis relative to control
[3] = Inhibition of recombinant human full-length His6-tagged NTMT1 (1 to 222 residues) expressed in Escherichia coli BL21-CodonPlus(DE3)-RIL competent cells assessed as Me2RCC1 level at 10 uM pre-incubated for 0 mins before RCC1 substrate addition and measured after 15 mins by Western blot analysis relative to control
[4] = Inhibition of recombinant human full-length His6-tagged NTMT1 (1 to 222 residues) expressed in Escherichia coli BL21-CodonPlus(DE3)-RIL competent cells assessed as Me3RCC1 level at 50 uM pre-incubated for 10 mins before RCC1 substrate addition and measured after 15 mins by Western blot analysis relative to control
[5] = Inhibition of recombinant human full-length His6-tagged NTMT1 (1 to 222 residues) expressed in Escherichia coli BL21-CodonPlus(DE3)-RIL competent cells assessed as Me2RCC1 level at 10 uM pre-incubated for 10 mins before RCC1 substrate addition and measured after 15 mins by Western blot analysis relative to control

SMILES | pIC50 [1] | pIC50 [2] | pIC50 [3] | pIC50 [4] | pIC50 [5]
N=C(N)NCCC[C@H](NC(=O)[C@H](CCCNC(=N)N)NC(=O)[C@H](CCCNC(=N)N)NC(=O)[C@H](CCCNC(=N)N)NC(=O)[C@H](CCCNC(=N)N)NC(=O)[C@H](CCCNC(=N)N)NC(=O)[C@H](CCCCN)NC(=O)[C@@H]1CCCN1C(=O)Cc1ccc(O)cc1)C(N)=O (X1-PKRRRRRR-NH2) | 6.10 | 7.00 | 6.05 | 7.00 | 6.00
N=C(N)NCCC[C@H](NC(=O)[C@H](CCCCN)NC(=O)[C@@H]1CCCN1C(=O)Cc1ccc(O)cc1)C(N)=O |  | 7.00 | 6.00 | 7.00 | 
N=C(N)NCCC[C@H](NC(=O)[C@H](CCCNC(=N)N)NC(=O)[C@H](CCCNC(=N)N)NC(=O)[C@H](CCC(N)=O)NC(=O)[C@H](CCCNC(=N)N)NC(=O)[C@H](CCCNC(=N)N)NC(=O)[C@H](CCCCN)NC(=O)[C@H](CCCCN)NC(=O)[C@H](CCCNC(=N)N)NC(=O)CNC(=O)[C@H](CCCNC(=N)N)NC(=O)[C@H](CCCCN)NC(=O)[C@@H]1CCCN1C(=O)Cc1ccc(O)cc1)C(N)=O | 6.00 |  | 6.15 | 6.70 | 6.00
